Measurements from patent US11458114B2, “Methods and compositions for enhancing synthesis secretion and transport of collagen to increase wound strength” (NORTH CELL PHARMACEUTICALS, INC., priority 2020, dated 2022).
Read-outs that look alike come from different tables or passages of the source.

What was measured:
non-cancerous cells = assay: Viable non-cancerous cells after incubation with anticancer drugs in various media; format: cell-based
wounds = assay: Various drugs administered on wounds with or without sodium pyruvate or SRF: erythema rating and days to total re-epithelization; conditions: for Drug in commercial formula with SRF. Days to healing / Drug in commercial formula with sodium pyruvate only. Days to healing / Drug in commercial formula Days to healing: days to total re-epithelization
Method: All previous studies using pyruvate to treat wounds or be used as an antioxidant used only the sodium salt form of pyruvic acid. The drug products that were tested in previous studies used 1-3% sodium pyruvate and other sodium salts of alpha keto acids by weight 1-3% concentrations in the lotions and triple antibiotic formulations. […]

[1] = Rating 1-10, 1 most erythema, 10 no erythema
[2] = Rating 1-10, 1 most erythema, 10 no erythema, drug alone

Row | Molecule | Drugs in commercial formula with SRF erythema (wounds; [1]) | Drugs in commercial formula with sodium pyruvate only erythema (wounds; [1]) | Drugs in commercial formula erythema (wounds; [2]) | Drugs in commercial formula erythema (wounds; in vivo) | Drugs in commercial formula with SRF erythema (wounds; in vivo) | Drugs in commercial formula with sodium pyruvate only erythema (wounds; in vivo) | Percentage of viable cells after incubation with drugs (non-cancerous cells) [%] | Percentage of viable cells, Drugs in commercial formula (non-cancerous cells) [%] | Percentage of viable cells, Drugs in commercial formula sodium pyruvate without SRF (non-cancerous cells) [%] | Percentage of viable cells, Drugs in commercial formula with SRF (non-cancerous cells) [%] | Percentage of viable cells, Drugs in commercial formula with SRF repeat study (non-cancerous cells) [%] | Drug in commercial formula with SRF. Days to healing (wounds) [days] | Drug in commercial formula with sodium pyruvate only. Days to healing (wounds) [days] | Drug in commercial formula Days to healing (wounds; drug alone) [days] | Percentage of viable cells after incubation with drugs (non-cancerous cells; drug) [%] | Percentage of viable cells, Drugs in commercial formula with SRF repeat study (non-cancerous cells; repeat study) [%]
1 | O=c1[nH]c(=O)n([C@H]2C[C@H](O)[C@@H](CO)O2)cc1F [floxuridine] |  |  |  |  |  |  | 38 | 38 | 58 | 92 | 91 |  |  |  |  | 
2 | CN(Cc1ccc(C(C)(C)C)cc1)Cc1cccc2ccccc12 [butenafine] | 5 | 4 | 3 |  |  |  |  |  |  |  |  | 16 | 18 | 21 |  | 
3 | Cc1cc(C2CCCCC2)n(O)c(=O)c1 [ciclopirox] | 9 | 5 | 4 |  |  |  |  |  |  |  |  | 9 | 11 | 20 |  | 
4 | O=C1[O][Pt]2([NH][C@@H]3CCCC[C@H]3[NH]2)[O]C1=O [oxaliplatin] |  |  |  |  |  |  |  | 24 | 41 | 95 |  |  |  |  | 23 | 98
5 | CC(=O)OCC(CCn1cnc2cnc(N)nc21)COC(C)=O [Famciclovir] | 7 | 6 | 5 |  |  |  |  |  |  |  |  | 12 | 14 | 17 |  | 
6 | CC[C@H]1OC(=O)[C@H](C)[C@@H](O[C@H]2C[C@@](C)(OC)[C@@H](O)[C@H](C)O2)[C@H](C)[C@@H](O[C@@H]2O[C@H](C)C[C@H](N(C)C)[C@H]2O)[C@](C)(O)C[C@@H](C)C(=O)[C@H](C)[C@@H](O)[C@]1(C)O [erythromycin] | 8 | 5 | 6 |  |  |  |  |  |  |  |  | 9 | 13 | 19 |  | 
7 | Bevacizumab |  |  |  |  |  |  | 21 | 27 | 40 |  | 87 |  |  |  |  | 
8 | Clc1ccc(COC(Cn2ccnc2)c2ccc(Cl)cc2Cl)cc1 (centres unmarked) [econazole] | 6 | 6 | 6 |  |  |  |  |  |  |  |  | 14 | 17 | 19 |  | 
9 | CC(=O)N1CCN(c2ccc(OCC3COC(Cn4ccnc4)(c4ccc(Cl)cc4Cl)O3)cc2)CC1 (centres unmarked) [ketoconazole] | 8 | 6 | 3 |  |  |  |  |  |  |  |  | 14 | 20 | 23 |  | 
10 | Clc1ccccc1C(c1ccccc1)(c1ccccc1)n1ccnc1 [Chlotrimizole] |  |  |  | 4 | 8 | 6 |  |  |  |  |  | 11 | 15 | 22 |  | 
11 | C[C@@H]1[C@H](O)[C@@H](C)/C=C/C=C/CC/C=C/C=C/C=C/C=C/C(O[C@H]2O[C@H](C)[C@@H](O)[C@H](N)[C@@H]2O)CC2O[C@](O)(CC(O)C(O)CCC(O)CC(O)CC(O)CC(=O)O[C@H]1C)CC(O)C2C(=O)O (some centres unmarked) [nystatin] | 8 | 6 | 2 |  |  |  |  |  |  |  |  | 12 | 14 | 17 |  | 
12 | NCc1ccc(S(N)(=O)=O)cc1 [mafenide] | 7 | 8 | 8 |  |  |  |  |  |  |  |  | 12 | 14 | 18 |  | 
13 | Nc1nc2c(ncn2CCC(CO)CO)c(=O)[nH]1 [Penciclovir] | 8 | 7 | 7 |  |  |  |  |  |  |  |  | 12 | 16 | 17 |  | 
14 | CC1=C(/C=C/C(C)=C/C=C/C(C)=C/CO)C(C)(C)CCC1 [Retinol] | 7 | 3 | 1 |  |  |  |  |  |  |  |  | 9 | 15 | 19 |  | 

Continued, in another order:

Row | Drugs in commercial formula with SRF erythema (wounds; [1]) | Drugs in commercial formula with sodium pyruvate only erythema (wounds; [1]) | Drugs in commercial formula erythema (wounds; [2]) | Drugs in commercial formula erythema (wounds; in vivo) | Drugs in commercial formula with SRF erythema (wounds; in vivo) | Drugs in commercial formula with sodium pyruvate only erythema (wounds; in vivo) | Molecule | Percentage of viable cells after incubation with drugs (non-cancerous cells) [%] | Percentage of viable cells, Drugs in commercial formula (non-cancerous cells) [%] | Percentage of viable cells, Drugs in commercial formula sodium pyruvate without SRF (non-cancerous cells) [%] | Percentage of viable cells, Drugs in commercial formula with SRF (non-cancerous cells) [%] | Percentage of viable cells, Drugs in commercial formula with SRF repeat study (non-cancerous cells) [%] | Drug in commercial formula with SRF. Days to healing (wounds) [days] | Drug in commercial formula with sodium pyruvate only. Days to healing (wounds) [days] | Drug in commercial formula Days to healing (wounds; drug alone) [days] | Percentage of viable cells after incubation with drugs (non-cancerous cells; drug) [%] | Percentage of viable cells, Drugs in commercial formula with SRF repeat study (non-cancerous cells; repeat study) [%]
15 | 9 | 7 | 6 |  |  |  | Clc1ccc(CO/N=C(\Cn2ccnc2)c2ccc(Cl)cc2Cl)c(Cl)c1 [oxiconazole] |  |  |  |  |  | 11 | 14 | 18 |  | 
16 | 7 | 6 | 3 |  |  |  | CN(C/C=C/c1ccccc1)Cc1cccc2ccccc12 [naftifine] |  |  |  |  |  | 13 | 14 | 20 |  | 
17 | 8 | 6 | 4 |  |  |  | Clc1ccc(CSC(Cn2ccnc2)c2ccc(Cl)cc2Cl)cc1 (centres unmarked) [sulconazole] |  |  |  |  |  | 11 | 15 | 20 |  | 
18 | 7 | 7 | 7 |  |  |  | Cc1cccc(N(C)C(=S)Oc2ccc3ccccc3c2)c1 [tolnaftate] |  |  |  |  |  | 10 | 13 | 21 |  | 
19 |  |  |  | 5 | 7 | 6 | microazole |  |  |  |  |  | 11 | 12 | 19 |  | 
20 | 8 | 8 | 8 |  |  |  | CC(C)[C@H](N)C(=O)OCCOCn1cnc2c(=O)[nH]c(N)nc21 [valaciclovir] |  |  |  |  |  | 14 | 17 | 18 |  | 
